Results from ChEMBL document CHEMBL3797116, “Modification on the O-glucoside of Sergliflozin-A: A new strategy for SGLT2 inhibitor design” (Bioorg Med Chem Lett, 2016).

Tests used:
Rattus norvegicus [1] = assay: In vivo hypoglycemic activity in Sprague-Dawley rat assessed as urinary […] glucose level per 200g of animal body weight measured for 8 to 12 hrs at 5 mL/kg, po (reference value: 0.21 +/- 0.01 mg); assay type: functional, Urine
Rattus norvegicus [2] = assay: In vivo hypoglycemic activity in Sprague-Dawley rat assessed as urinary […] glucose level per 200g of animal body weight measured for 0 to 24 hrs at 5 mL/kg, po (reference value: 2.03 +/- 0.34 mg); assay type: functional, Urine
Rattus norvegicus [3] = assay: In vivo hypoglycemic activity in Sprague-Dawley rat assessed as urinary […] glucose level per 200g of animal body weight measured for 12 to 24 hrs at 5 mL/kg, po (reference value: 1.45 +/- 0.28 mg); assay type: functional, Urine
Rattus norvegicus [4] = assay: In vivo hypoglycemic activity in Sprague-Dawley rat assessed as urinary […] glucose level per 200g of animal body weight measured for 0 to 4 hrs at 5 mL/kg, po (reference value: 0.26 +/- 0.04 mg); assay type: functional, Urine
Rattus norvegicus [5] = assay: In vivo hypoglycemic activity in Sprague-Dawley rat assessed as urinary […] glucose level per 200g of animal body weight measured for 4 to 8 hrs at 5 mL/kg, po (reference value: 0.14 +/- 0.03 mg); assay type: functional, Urine
Rattus norvegicus [6] = assay: In vivo hypoglycemic activity in Sprague-Dawley rat assessed as reduction in urinary […] glucose level per 200g of animal body weight measured for 0 to 24 hrs at 5 mL/kg, po; assay type: functional, Urine; parameters: scale not given: the % may be the effect or the level left
[7] = (§1) Metabolic stability in rat liver homogenate assessed as compound hydrolysis at 10 uM after 8 hrs; assay type: ADME, tissue-based; settings: liver homogenate, read-out: Drug degradation
[8] = Octanol-phosphate buffer saline partition coefficient, logP of the compound measured after 24 hrs by HPLC method; assay type: physicochemical
Rattus norvegicus [9] = assay: In vivo hypoglycemic activity in Sprague-Dawley rat assessed as urinary […] glucose level per 200g of animal body weight measured for 6 to 24 hrs at 5 mL/kg, po; assay type: functional, Urine
Rattus norvegicus [10] = assay: In vivo hypoglycemic activity in Sprague-Dawley rat assessed as urinary […] glucose level per 200g of animal body weight measured for 0 to 6 hrs at 5 mL/kg, po; assay type: functional, Urine
Liver = assay: as §1; assay type: ADME, tissue-based; settings: tissue homogenate, 8 h, 10 µM

Row | Structure (SMILES) | Activity (Rattus norvegicus [1]) [mg] | Activity (Rattus norvegicus [2]) [mg] | Activity (Rattus norvegicus [3]) [mg] | Activity (Rattus norvegicus [4]) [mg] | Activity (Rattus norvegicus [5]) [mg] | Activity (Rattus norvegicus [6]) [%] | metabolised at 8 h, 10 µM [7] [%] | logP at 24 h [8] | Activity (Rattus norvegicus [9]) [mg] | Activity (Rattus norvegicus [10]) [mg] | Stability (Liver)
1 | COc1ccc(Cc2ccccc2O[C@@H]2O[C@H](CO)[C@@H](O)[C@H](O)[C@H]2OC)cc1 | 0.02 | 0.27 | 0.11 | 0.11 | 0.03 | – | – | – | – | – | –
2 | COc1ccc(Cc2ccccc2O[C@@H]2O[C@H](CO)C[C@H](O)[C@H]2O)cc1 | 0.42 | 11.05 | 1.73 | 8.21 | 0.68 | – | – | – | – | – | –
3 | COC[C@H]1O[C@@H](Oc2ccccc2Cc2ccc(OC)cc2)[C@H](O)[C@@H](O)[C@@H]1O | 7.19 | 73.29 | 0.76 | 61.23 | 4.11 | 31 | – | – | – | – | –
4 | Cc1cc(=O)oc2cc(O[C@@H]3O[C@H](CO)[C@@H](O)[C@H](O)[C@H]3O)ccc12 | – | – | – | – | – | – | > 80 | – | – | – | –
5 | COc1ccc(Cc2ccccc2O[C@@H]2O[C@H](CF)[C@@H](O)[C@H](O)[C@H]2O)cc1 | 0.13 | 4.52 | 1.02 | 2.34 | 1.03 | – | – | – | – | – | –
6 | COc1ccc(Cc2ccccc2O[C@@H]2O[C@H](C)[C@@H](O)[C@H](O)[C@H]2O)cc1 | 0.07 | 34.91 | 0.8 | 33.36 | 0.69 | – | – | – | – | – | –
7 | COc1ccc(Cc2ccccc2O[C@@H]2O[C@H](CO)[C@@H](O)[C@H](O)[C@H]2O)cc1 [SERGLIFLOZIN A] | 33.8 | 235.03 | 39.44 | 126.99 | 34.8 | – | – | 1.32 | – | – | –
8 | COc1ccc(Cc2ccccc2O[C@@H]2O[C@H](CO)[C@@H](OC)[C@H](O)[C@H]2O)cc1 | 11.01 | 172.94 | 0.78 | 102.46 | 58.68 | 73 | – | 1.83 | – | – | –
9 | COc1ccc(Cc2ccccc2O[C@@H]2O[C@H](CO)[C@@H](O)[C@H](OC)[C@H]2O)cc1 | 0.65 | 18.67 | 0.24 | 13.67 | 4.11 | – | – | – | – | – | –
10 | COc1ccc(Cc2ccccc2O[C@@H]2O[C@H](CO)[C@@H](O)[C@H](O)[C@H]2F)cc1 | – | 16 | – | – | – | – | – | – | 11 | 4.9 | –
11 | CO[C@H]1[C@H](O)[C@@H](O)[C@H](Oc2ccc3oc(=O)cc(C)c3c2)O[C@@H]1CO | – | – | – | – | – | – | – | – | – | – | Stable
12 | COc1ccc(Cc2ccccc2O[C@@H]2O[C@H](CO)[C@@H](O)C[C@H]2O)cc1 | 0.21 | 1.24 | 0.44 | 0.36 | 0.23 | – | – | – | – | – | –
